Laboratory results: the supplement of paper PMC13380429

Experiments:
[1] = system: A549-ACE2 infected with SARS-CoV-2; assay: SARS-CoV-2 infection rate relative to DMSO; higher = more infection; details: 24 h
U2OS [2] = assay: cell viability relative to DMSO; higher = less toxic; details: 72 h
Calu-3 [3] = assay: as above; details: 72 h
Vero E6 [4] = assay: as above; details: 72 h
Caco-2 [5] = assay: as above; details: 72 h
HepG2 [6] = assay: as above; details: 72 h
[7] = system: A549-ACE2 infected with SARS-CoV-2; assay: morphology score (similarity to uninfected cells); higher = more like uninfected cells; details: 24 h
A549-ACE2 [8] = assay: drug-induced phospholipidosis relative to tamoxifen; higher = more phospholipidosis
U2OS [9] = assay: relative viability EC50 (midpoint between 100% and the lowest measured viability); higher = less toxic; details: 72 h
Vero E6 [10] = assay: as above; details: 72 h
Caco-2 [11] = assay: as above; details: 72 h
[12] = system: A549-ACE2 infected with SARS-CoV-2; assay: cell count relative to DMSO; higher = less toxic; details: 24 h
A549-ACE2 [13] = assay: phospholipidosis EC50; higher = less potent phospholipidosis inducer
U2OS [14] = assay: drug sensitivity score (DSS) for viability; higher = more toxic; extreme values may be limits of the assay; details: 72 h
Calu-3 [15] = assay: as above; details: 72 h
Vero E6 [16] = assay: as above; details: 72 h
Caco-2 [17] = assay: as above; details: 72 h
HepG2 [18] = assay: as above; details: 72 h
Calu-3 [19] = assay: relative viability EC50 (midpoint between 100% and the lowest measured viability); higher = less toxic; details: 72 h
HepG2 [20] = assay: as above; details: 72 h

Cc1cc(CN)cc(C)c1NC(=O)c1ccc(-c2cc(Cl)ccc2Cl)o1
Details	SARS-CoV-2 infection rate [%]	cell count [%]	cell viability [%]	morphology score	phospholipidosis EC50 [µM]
A549-ACE2 [13], 24 h	–	–	–	–	2.39
A549-ACE2 [13], 48 h	–	–	–	–	3.42
A549-ACE2 [13], 72 h	–	–	–	–	4.24
Caco-2 [5], 1 nM	–	–	105	–	–
Caco-2 [5], 10 nM	–	–	101	–	–
Caco-2 [5], 100 nM	–	–	98.1	–	–
Caco-2 [5], 1000 nM	–	–	102	–	–
Caco-2 [5], 10000 nM	–	–	79.1	–	–
Calu-3 [3], 1 nM	–	–	104	–	–
Calu-3 [3], 10 nM	–	–	101	–	–
Calu-3 [3], 100 nM	–	–	104	–	–
Calu-3 [3], 1000 nM	–	–	102	–	–
Calu-3 [3], 10000 nM	–	–	60.1	–	–
HepG2 [6], 1 nM	–	–	106	–	–
HepG2 [6], 10 nM	–	–	103	–	–
HepG2 [6], 100 nM	–	–	97.8	–	–
HepG2 [6], 1000 nM	–	–	107	–	–
HepG2 [6], 10000 nM	–	–	66.7	–	–
U2OS [2], 1 nM	–	–	98	–	–
U2OS [2], 10 nM	–	–	102	–	–
U2OS [2], 100 nM	–	–	98.5	–	–
U2OS [2], 1000 nM	–	–	101	–	–
U2OS [2], 10000 nM	–	–	83.1	–	–
Vero E6 [4], 1 nM	–	–	103	–	–
Vero E6 [4], 10 nM	–	–	97.5	–	–
Vero E6 [4], 100 nM	–	–	105	–	–
Vero E6 [4], 1000 nM	–	–	96.6	–	–
Vero E6 [4], 10000 nM	–	–	96.8	–	–
[1], 0.3 µM	101	–	–	–	–
[1], 3 µM	34	–	–	–	–
[1], 10 µM	10	–	–	–	–
[1], 30 µM	43	–	–	–	–
[7], 0.3 µM	–	–	–	0.02	–
[7], 3 µM	–	–	–	0.84	–
[7], 10 µM	–	–	–	0.68	–
[7], 30 µM	–	–	–	-0.13	–
[12], 0.3 µM	–	101	–	–	–
[12], 3 µM	–	120	–	–	–
[12], 10 µM	–	120	–	–	–
[12], 30 µM	–	1	–	–	–

drug-induced phospholipidosis [%], A549-ACE2 [8]
Details	0.3 µM	0.833333 µM	3.33333 µM	6.66667 µM	10 µM
24 h	2.63	5.94	68	88.7	90.2
48 h	3.74	4.56	48.1	81.5	90.1
72 h	1.91	1.3	32.6	66.3	78.5

Details	drug sensitivity score	relative viability EC50 [µM]
Caco-2 [11]	–	> 10
Caco-2 [17]	0.6	–
Calu-3 [15]	1.8	–
HepG2 [18]	1.2	–
U2OS [9]	–	> 10
U2OS [14]	0.3	–
Vero E6 [10]	–	> 10
Vero E6 [16]	0	–

Clc1cccc(C(c2ccc3[nH]cnc3c2)n2ccnc2)c1 (stereo not drawn) [liarozole]
cell viability [%]
Details	Caco-2 [5]	Calu-3 [3]	HepG2 [6]	U2OS [2]	Vero E6 [4]
1 nM	97.2	99	99.6	97.8	94.2
10 nM	87.8	96.1	104	95	90.5
100 nM	98.7	93.8	99.3	95.5	94.8
1000 nM	93.9	103	111	93.9	94.8
10000 nM	85.4	101	89.3	96.3	95

Details	drug sensitivity score	relative viability EC50 [µM]
Caco-2 [11]	–	> 10
Caco-2 [17]	0	–
Calu-3 [15]	0	–
Calu-3 [19]	–	> 10
HepG2 [18]	0	–
HepG2 [20]	–	> 10
U2OS [9]	–	> 10
U2OS [14]	0	–
Vero E6 [10]	–	> 10
Vero E6 [16]	0	–

CC(C)NCC(O)c1ccc(N)c(C#N)c1 (stereo not drawn) [cimaterol]
cell viability [%]
Details	Caco-2 [5]	Calu-3 [3]	HepG2 [6]	U2OS [2]	Vero E6 [4]
1 nM	96	102	110	100	105
10 nM	93.2	93.2	91.6	99.4	104
100 nM	94.2	101	96.6	106	96.6
1000 nM	89.8	99.2	91.7	97	103
10000 nM	102	96.6	94.1	105	99.2

Details	drug sensitivity score	relative viability EC50 [µM]
Caco-2 [11]	–	> 10
Caco-2 [17]	0	–
Calu-3 [15]	0	–
Calu-3 [19]	–	> 10
HepG2 [18]	0	–
HepG2 [20]	–	> 10
U2OS [9]	–	> 10
U2OS [14]	0	–
Vero E6 [10]	–	> 10
Vero E6 [16]	0	–

COc1ccc([C@@H]2CC(=O)c3c(O)cc(O[C@@H]4O[C@H](CO)[C@@H](O)[C@H](O)[C@H]4O[C@@H]4O[C@@H](C)[C@H](O)[C@@H](O)[C@H]4O)cc3O2)cc1O [neohesperidin]
cell viability [%]
Details	Caco-2 [5]	Calu-3 [3]	HepG2 [6]	U2OS [2]	Vero E6 [4]
1 nM	94.5	102	102	96.7	98.2
10 nM	99.5	91.1	97.8	98.8	92.8
100 nM	99.4	95.7	103	97.2	93.6
1000 nM	90.1	101	99.3	96	95.9
10000 nM	99.3	102	101	108	104

Details	drug sensitivity score	relative viability EC50 [µM]
Caco-2 [11]	–	> 10
Caco-2 [17]	0	–
Calu-3 [15]	0	–
Calu-3 [19]	–	> 10
HepG2 [18]	0	–
HepG2 [20]	–	> 10
U2OS [9]	–	> 10
U2OS [14]	0	–
Vero E6 [10]	–	> 10
Vero E6 [16]	0	–

CCN(CC)Cc1nccn1-c1ccc([N+](=O)[O-])cc1C(=O)c1ccccc1Cl [nizofenone]
cell viability [%]
Details	Caco-2 [5]	Calu-3 [3]	HepG2 [6]	U2OS [2]	Vero E6 [4]
1 nM	124	93.3	100	105	102
10 nM	92.8	105	96	102	100
100 nM	81.8	98.8	98.4	97.1	104
1000 nM	108	105	95.7	102	102
10000 nM	81.1	99.5	95.5	98.7	92.9

Details	drug sensitivity score	relative viability EC50 [µM]
Caco-2 [11]	–	> 10
Caco-2 [17]	0.3	–
Calu-3 [15]	0	–
Calu-3 [19]	–	> 10
HepG2 [18]	0	–
HepG2 [20]	–	> 10
U2OS [9]	–	> 10
U2OS [14]	0	–
Vero E6 [10]	–	> 10
Vero E6 [16]	0	–
